Values of other authors as cited in patent publication US11420990B2, “Ruthenium complex containing alkynyl group, method of synthesizing the same and use thereof” (GUANGDONG PHARMACEUTICAL UNIVERSITY, priority 2018, dated 2022).

Test system: cancer cells
Conditions: background statement

In the case of [Ru+2].c1ccc(-c2ccccn2)nc1.c1ccc(-c2ccccn2)nc1.c1ccc2nc3c4cccnc4c4ncccc4c3nc2c1 [[Ru(bpy)2(dppz)]^2+], the “cytotoxicity to cancer cells (in words)” value is listed as “insignificant cytotoxicity”.
